Results from US20100197765A1, “METHOD FOR PROMOTING THE EXPRESSION OF P53, AND P53 EXPRESSION PROMOTER FOR USE IN THE METHOD” (THE UNIVERSITY OF TOKUSHIMA, priority 2007, published 2010).

System: HCT116 cell strain
Test: tumor volume of si-vegf #1 HCT116 cell strain xenografted to nude mice
Assay type: in vivo
Details: si-vegf #1 cells vs si-Control cells, subcutaneous, n=5
Source text: With regard to cells expressing siRNA against vegf, the effect thereof on the tumorigenicity in vivo was examined. Vegf siRNA #1 vectors expressing the above-described siRNA #1 were transfected into a HCT116 cell strain (wild-type p53) derived from human large bowel cancer, and the transfected cells were selected with an antibiotic blasticidin. The thus-obtained cell clone hereinafter is referred to as a si-vegf #1 cell strain. As a control, pcDNA6.2-GW/EmGFP-miR vectors (Invitrogen) to which a double-stranded oligonucleotide with a sequence (SEQ ID NO. 46: 5′-[…]-3′) having no homology to known vertebrate genes had been inserted were used (control siRNA vectors) as in the above. The […] cell strain was transfected with these control siRNA vectors in the same manner as in the above, and the transfected cells were selected with the antibiotic. The thus-obtained cell clone hereinafter is referred to as a si-Control cell strain. Then, the si-vegf #1 cell strain and the si-Control cell strain respectively were xenografted subcutaneously to femoral regions of nude mice, and the volume of the formed tumor was measured after the predetermined time (each n=5) in the same manner as in Example C2.

## siRNA #1: siRNA against vegf mRNA, SEQ ID NO 3/4, antisense complementary to bases 1062-1082 in SEQ ID NO. 1; expressed from pcDNA6.2-GW/EmGFP-miR vector (sense GCAUUGGACUUGCCUUGCUNN; antisense AGCAAGGCAAGGCUCCAAUGCNN)
  tumor formation and tumor growth: significant suppression
